Experiments:
[1] = J. Karnatak Univ., Sci. (1984), 29, 82-6; cited from earlier work
[2] = biological target: T1, VEGF receptor tyrosine kinase (Homo sapiens, UniProt P17948); experiment: In vitro receptor tyrosine kinase inhibition test (VEGF receptor); type: biochemical
T1 construct: encoding most of the cytoplasmic domain, commencing with methionine 783 and including the termination codon; made in house; host or cells: Spodoptera frugiperda Sf21 insect cells (baculovirus); cleared Triton X100 lysate used as enzyme stock
T1 sequence (P17948 781-1338 limits assumed): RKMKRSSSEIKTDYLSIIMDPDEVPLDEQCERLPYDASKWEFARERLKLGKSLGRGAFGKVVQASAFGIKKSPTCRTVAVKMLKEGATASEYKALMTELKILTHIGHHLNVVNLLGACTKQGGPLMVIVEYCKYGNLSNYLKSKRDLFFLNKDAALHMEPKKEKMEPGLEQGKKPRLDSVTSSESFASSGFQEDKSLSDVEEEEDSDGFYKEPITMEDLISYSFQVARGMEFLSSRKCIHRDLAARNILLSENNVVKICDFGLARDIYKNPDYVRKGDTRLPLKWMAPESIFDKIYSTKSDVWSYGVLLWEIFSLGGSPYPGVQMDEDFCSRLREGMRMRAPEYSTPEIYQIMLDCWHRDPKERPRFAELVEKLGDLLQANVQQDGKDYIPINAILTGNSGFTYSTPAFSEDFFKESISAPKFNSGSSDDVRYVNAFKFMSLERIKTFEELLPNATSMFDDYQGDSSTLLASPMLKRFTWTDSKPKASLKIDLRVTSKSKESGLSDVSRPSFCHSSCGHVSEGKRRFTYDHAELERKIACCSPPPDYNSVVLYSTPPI
Excerpt: (§1) (a) In Vitro Receptor Tyrosine Kinase Inhibition Test
This assay determines the ability of a test compound to inhibit tyrosine kinase activity. […] These may then be expressed in a suitable expression system to obtain polypeptide with tyrosine kinase activity. […] This recombinant construct was co-transfected into insect cells (for example Spodoptera frugiperda 21 (Sf21)) with viral DNA (eg Pharmingen BaculoGold) to prepare recombinant baculovirus.
For expression of cFlt tyrosine kinase activity, Sf21 cells were infected with plaque-pure cFlt recombinant virus at a multiplicity of infection of 3 and harvested 48 hours later. […] The suspension was centrifuged for 10 minutes at 13.000 rpm at 4° C., the supernatant (enzyme stock) was removed and stored in aliquots at −70° C. Each new batch of stock enzyme was titrated in the assay by dilution with enzyme diluent (100 mM Hepes pH 7.4, 0.2 mM Na3VO4, 0.1% v/v Triton X100, 0.2 mM dithiothreitol). For a typical batch, stock enzyme is diluted 1 in 2000 with enzyme diluent and 50 μl of dilute enzyme is used for each assay well.
(§2) A stock of substrate solution was prepared from a random copolymer containing tyrosine, for example Poly (Glu, Ala, Tyr) 6:3:1 (Sigma P3899), stored as 1 mg/ml stock in PBS at −20° C. and diluted 1 in 500 with PBS for plate coating.
(§3) On the day before the assay 100 μl of diluted substrate solution was dispensed into all wells of assay plates (Nunc maxisorp 96-well immunoplates) which were sealed and left overnight at 4° C.
(§4) On the day of the assay the substrate solution was discarded and the assay plate wells were washed once with PBST (PBS containing 0.05% v/v Tween 20) and once with 50 mM Hepes pH7.4.
Test compounds were diluted with 10% dimethylsulphoxide (DMSO) and 25 μl of diluted compound was transferred to wells in the washed assay plates. “Total” control wells contained 10% DMSO instead of compound. Twenty five microliters of 40 mM MnCl2 containing 8 μM adenosine-5′-triphosphate (ATP) was added to all test wells except “blank” control wells which contained MnCl2 without ATP. To start the reactions 50 μl of freshly diluted enzyme was added to each well and the plates were incubated at room temperature for 20 minutes. The liquid was then discarded and the wells were washed twice with PBST. […] Plates were then incubated for 20-60 minutes at room temperature until the optical density value of the “total” control wells, measured at 405 nm using a plate reading spectrophotometer, was approximately 1.0.

[3] = biological target: T2, epidermal growth factor (EGF) receptor tyrosine kinase (Homo sapiens, UniProt P00533); experiment: In vitro receptor tyrosine kinase inhibition test (EGF receptor); type: biochemical
T2 construct: made in house; host or cells: insect cells (baculovirus, as for Flt)
Excerpt: as §1
This assay determines the ability of a test compound to inhibit tyrosine kinase activity. DNA encoding VEGF or epidermal growth factor (EGF) receptor cytoplasmic domains may be obtained by total gene synthesis (Edwards M, International Biotechnology Lab 5(3), 19-25, 1987) or by cloning. These may then be expressed in a suitable expression system to obtain polypeptide with tyrosine kinase activity. […] In the case of the VEGF receptor Flt (Genbank accession number X51602), a 1.7 kb DNA fragment encoding most of the cytoplasmic domain, commencing with methionine 783 and including the termination codon, described by Shibuya et al (Oncogene, 1990, 5: 519-524), was isolated from cDNA and cloned into a baculovirus transplacement vector (for example pAcYM1 (see The Baculovirus Expression System: A Laboratory Guide, L. A. King and R. D. Possee, Chapman and Hall, 1992) or pAc360 or pBlueBacHis (available from Invitrogen Corporation)). This recombinant construct was co-transfected into insect cells (for example Spodoptera frugiperda 21 (Sf21)) with viral DNA (eg Pharmingen BaculoGold) to prepare recombinant baculovirus. (Details of the methods for the assembly of recombinant DNA molecules and the preparation and use of recombinant baculovirus can be found in standard texts for example Sambrook et al, 1989. Molecular cloning—A Laboratory Manual, 2nd edition, Cold Spring Harbour Laboratory Press and O'Reilly et al, 1992, Baculovirus Expression Vectors—A Laboratory Manual. W. H. Freeman and Co. New York). For other tyrosine kinases for use in assays, cytoplasmic fragments starting from methionine 806 (KDR, Genbank accession number L04947) and methionine 668 (EGF receptor, Genbank accession number X00588) may be cloned and expressed in a similar manner.
For expression of cFlt tyrosine kinase activity, Sf21 cells were infected with plaque-pure cFlt recombinant virus at a multiplicity of infection of 3 and harvested 48 hours later. Harvested cells were washed with ice cold phosphate buffered saline solution (PBS) (10 mM sodium phosphate pH7.4, 138 mM NaCl, 2.7 mM KCl) then resuspended in ice cold HNTG/PMSF (20 mM Hepes pH7.5, 150 mM NaCl, 10% v/v glycerol, 1% v/v Triton X100. 1.5 mM MgCl2, 1 mM ethylene glycol-bis(βaminoethyl ether) N,N,N′,N′-tetraacetic acid (EGTA), 1 mM PMSF (phenylmethylsulphonyl fluoride); the PMSF is added just before use from a freshly-prepared 100 mM solution in methanol) using 1 ml HNTG/PMSF per 10 million cells. The suspension was centrifuged for 10 minutes at 13.000 rpm at 4° C., the supernatant (enzyme stock) was removed and stored in aliquots at −70° C. Each new batch of stock enzyme was titrated in the assay by dilution with enzyme diluent (100 mM Hepes pH 7.4, 0.2 mM Na3VO4, 0.1% v/v Triton X100, 0.2 mM dithiothreitol). For a typical batch, stock enzyme is diluted 1 in 2000 with enzyme diluent and 50 μl of dilute enzyme is used for each assay well.
as §2, §3, §4
Test compounds were diluted with 10% dimethylsulphoxide (DMSO) and 25 μl of diluted compound was transferred to wells in the washed assay plates. “Total” control wells contained 10% DMSO instead of compound. Twenty five microliters of 40 mM MnCl2 containing 8 μM adenosine-5′-triphosphate (ATP) was added to all test wells except “blank” control wells which contained MnCl2 without ATP. […]

T2 sequence (P00533 669-1210 limits assumed): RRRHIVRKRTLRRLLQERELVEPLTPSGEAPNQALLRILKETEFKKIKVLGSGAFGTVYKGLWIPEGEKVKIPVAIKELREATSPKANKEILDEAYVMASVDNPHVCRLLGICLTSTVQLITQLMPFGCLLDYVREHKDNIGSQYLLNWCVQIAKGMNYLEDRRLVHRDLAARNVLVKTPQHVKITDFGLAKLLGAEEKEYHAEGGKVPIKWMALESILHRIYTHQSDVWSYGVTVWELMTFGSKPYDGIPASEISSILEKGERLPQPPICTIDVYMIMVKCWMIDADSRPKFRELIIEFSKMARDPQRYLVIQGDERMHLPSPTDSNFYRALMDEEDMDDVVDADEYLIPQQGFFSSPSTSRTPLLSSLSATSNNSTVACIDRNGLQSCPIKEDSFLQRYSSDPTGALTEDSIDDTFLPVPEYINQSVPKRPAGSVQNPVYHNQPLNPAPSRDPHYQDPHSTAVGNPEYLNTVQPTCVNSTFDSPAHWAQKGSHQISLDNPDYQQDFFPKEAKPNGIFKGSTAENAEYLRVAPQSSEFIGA

activity against VEGF receptor tyrosine kinase [2]	activity against epidermal growth factor (EGF) receptor tyrosine kinase [3]	SMILES	anti-inflammatory and antiarthritic activity [1]
		COc1cc2nncc(Nc3cccc(Cl)c3)c2cc1OC [4-(3-chloroanilino)-6,7-dimethoxycinnoline]	some anti-inflammatory and antiarthritic activity
		COc1ccc(Nc2cnnc3cc(OC)c(OC)cc23)cc1 [4-(4-methoxyanilino)-6,7-dimethoxycinnoline]	some anti-inflammatory and antiarthritic activity
good activity	lack of significant activity	COc1cc2c(Nc3cc(O)c(C)cc3F)cnnc2cc1OCCCN1CCOCC1 [Example 15, 4-(2-fluoro-5-hydroxy-4-methylanilino)-6-metboxy-7-(3-morpholinopropoxy)cinnoline]	

From patent US6514971B1, “Cinnoline derivatives and use as medicine” (Zeneca Limited, priority 1996, dated 2003)
